# Measurements taken from PubChem BioAssay AID2060486 (Molecular Pharmacology Branch, DTP, NCI, 2025).
# Test system: IGROV1 complex spheroids (HUVEC, MSC), viability % test/control
# Assay: Anticancer human tumor IGROV1 cell line growth inhibition [GQUAD];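 also: spheroids exposed to compounds for 7 days before readout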
# Conditions: for IC50: curve of first compound; for viability, T/C: stronger effect = lower value
# Excerpt: DNA G-quadruplex Stabilizer Agents in Combinations in Complex Spheroids
# A high-throughput screen of multi-cell type tumor spheroids was designed to identify active combinations of DNA G-quadruplex stabilizer agents and targeted small molecules. Complex spheroids include a stromal component modeled by human endothelial cells (HUVEC) and fibroblasts modeled by human mesenchymal stem cells (MSCs). The concentration ranges selected for each drug and investigational agent were based upon clinically achievable concentrations if the clinical Cmax of the agent was known.
# Compounds. The drugs and investigational agents: pidnarulex (CX-5461; NSC782164), APTO-253 (NSC789042), BRACO-19 (NSC847499), peposertib (NSC802822), ceralasertib (NSC780249), elimusertib (NSC800525), camonsertib (NSC841442), AZD-1390 (NSC803789), olaparib (NSC753686), talazoparib (NSC767125), ART-558 (NSC835418), sotorasib (NSC818433), MRTX-1133 (NSC836407), SN-38 (NSC673596), topotecan (NSC609699), etoposide (NSC141540), doxorubicin (NSC123127), gemcitabine (NSC613327), 5-fluorouracil (NSC19893), paclitaxel (NSC125973), vemurafenib (NSC761431), panobinostat (NSC761190), R-306465 (JNJ-16241199; NSC773264), adavosertib (NSC754352), TP-3654 (NSC805149), carboplatin (NSC241240), KSQ-4279 (NSC840948), and staurosporine (NSC755774) were obtained from the National Cancer Institute (NCI) Developmental Therapeutics Program Chemical Repository (34). The FDA-approved anticancer drug set is available from the NCI Developmental Therapeutics Program. […] The stock solutions were prepared in dimethyl sulfoxide (DMSO, Sigma-Aldrich, St. Louis, MO, cat. D2650) at 800-fold the tested concentration and stored at -70 degrees C prior to their use. All drugs and investigational agents were tested over a range starting from a high concentration at or near the clinical Cmax and decreasing in half-log increments. If the clinical Cmax for an agent had not been determined, the highest concentration tested was 10 microM.
# 2.3 Cell Culture. All cells were maintained in an incubator at 37 degrees C and 5% CO2 with 95% humidity. The PDC lines were cultured according to standard operating procedures established by the NCI PDMR. All PDCs were thawed and cultured in Matrigel-coated flasks prepared with a working solution of 1X Ham's F-12 nutrient mix, without supplementation (Invitrogen, cat. 11765054), 100 U/mL penicillin-streptomycin (Invitrogen, cat. 15140122), and 2.5% Matrigel (Corning Inc., cat. 354248) for the first three passages. The 857933-349-R-J2-PDC line was cultured in 6C/Colon 1B media, which includes advanced DMEM/F-12 (Thermo Fisher Scientific, cat. 12634028), 10 mM HEPES (Thermo Fisher Scientific, cat. 15630080), 1X GlutaMAX supplement (Thermo Fisher Scientific, cat. 35050061), 0.1 mg/mL primocin (InvivoGen, cat. ant-pm-2), 10% defined fetal bovine serum, heat inactivated (HyClone Laboratories Inc., cat. SH30070.03HI), 50% L-WRN conditioned media (ATCC, cat. CRL-3276), 1.25 mM N-Acetyl-L-cysteine (Sigma-Aldrich, cat. A9165), 10 mM nicotinamide (Sigma-Aldrich, cat. N0636), 1X B-27 supplement (Thermo Fisher Scientific, cat. 17504044), 1X N-2 supplement (Thermo Fisher Scientific, cat. 17502048), 10 microM Y-27632 dihydrochloride (Tocris Bioscience, cat. 1254), and 50 ng/mL human EGF recombinant protein (Thermo Fisher Scientific, cat. PHG0311). The 485176-168-R4-J1-PDC line was cultured in Panc media, which includes all 6C/Colon 1B media components plus 100 ng/mL human FGF-10 (Thermo Fisher Scientific, cat. 100-26), 500 nM SB-431542 (Selleckchem, cat. S1067), and gastrin (Tocris, cat. 3006).
# […]
# [1] = second compound 0.0316 µM, first compound 0.0316 µM
# [2] = second compound 0.0316 µM, first compound 0.1 µM
# [3] = second compound 0.0316 µM, first compound 0.316 µM
# [4] = second compound 0.0316 µM, first compound 1 µM
# [5] = second compound 0.0316 µM, first compound 3.16 µM
# [6] = second compound 0.0316 µM, first compound 10 µM
# [7] = second compound 0.1 µM, first compound 0.0316 µM
# [8] = second compound 0.1 µM, first compound 0.1 µM
# [9] = second compound 0.1 µM, first compound 0.316 µM
# [10] = second compound 0.1 µM, first compound 1 µM
# [11] = second compound 0.1 µM, first compound 3.16 µM
# [12] = second compound 0.1 µM, first compound 10 µM
# [13] = second compound 0.316 µM, first compound 0.0316 µM
# [14] = second compound 0.316 µM, first compound 0.1 µM
# [15] = second compound 0.316 µM, first compound 0.316 µM
# [16] = second compound 0.316 µM, first compound 1 µM
# [17] = second compound 0.316 µM, first compound 3.16 µM
# [18] = second compound 0.316 µM, first compound 10 µM
# [19] = second compound 1 µM, first compound 0.0316 µM
# [20] = second compound 1 µM, first compound 0.1 µM
# [21] = second compound 1 µM, first compound 0.316 µM
# [22] = second compound 1 µM, first compound 1 µM
# [23] = second compound 1 µM, first compound 3.16 µM
# [24] = second compound 1 µM, first compound 10 µM
# [25] = second compound 3.16 µM, first compound 0.0316 µM
# [26] = second compound 3.16 µM, first compound 0.1 µM
# [27] = second compound 3.16 µM, first compound 0.316 µM
# [28] = second compound 3.16 µM, first compound 1 µM
# [29] = second compound 3.16 µM, first compound 3.16 µM
# [30] = second compound 3.16 µM, first compound 10 µM
# [31] = second compound 10 µM, first compound 0.0316 µM
# [32] = second compound 10 µM, first compound 0.1 µM
# [33] = second compound 10 µM, first compound 0.316 µM
# [34] = second compound 10 µM, first compound 1 µM
# [35] = second compound 10 µM, first compound 3.16 µM
# [36] = second compound 10 µM, first compound 10 µM
compound,measurement,setting,value
CC1COCCN1c1cc(C2(S(C)(=N)=O)CC2)nc(-c2ccnc3[nH]ccc23)n1 (stereo unspecified) + CN(C)c1ccc(Nc2c3ccc(NC(=O)CCN4CCCC4)cc3nc3cc(NC(=O)CCN4CCCC4)ccc23)cc1,IC50,second compound 0.0316 µM,1.02 µM
same,IC50,second compound 0.1 µM,0.949 µM
same,IC50,second compound 0.316 µM,0.979 µM
same,IC50,second compound 1 µM,1.02 µM
same,IC50,second compound 3.16 µM,1.03 µM
same,IC50,second compound 10 µM,0.141 µM
same,"viability, T/C",[1],83.5%
same,"viability, T/C",[2],76.6%
same,"viability, T/C",[3],86.7%
same,"viability, T/C",[4],49.9%
same,"viability, T/C",[5],16.1%
same,"viability, T/C",[6],7.65%
same,"viability, T/C",[7],99.2%
same,"viability, T/C",[8],89.5%
same,"viability, T/C",[9],76.3%
same,"viability, T/C",[10],52.7%
same,"viability, T/C",[11],14%
same,"viability, T/C",[12],5.88%
same,"viability, T/C",[13],83.7%
same,"viability, T/C",[14],103%
same,"viability, T/C",[15],76.8%
same,"viability, T/C",[16],51.4%
same,"viability, T/C",[17],13.7%
same,"viability, T/C",[18],6.28%
same,"viability, T/C",[19],72.4%
same,"viability, T/C",[20],93%
same,"viability, T/C",[21],69.8%
same,"viability, T/C",[22],52.5%
same,"viability, T/C",[23],12.1%
same,"viability, T/C",[24],6.36%
same,"viability, T/C",[25],65.5%
same,"viability, T/C",[26],84%
same,"viability, T/C",[27],79.7%
same,"viability, T/C",[28],49.4%
same,"viability, T/C",[29],16.5%
same,"viability, T/C",[30],6.55%
same,"viability, T/C",[31],60.6%
same,"viability, T/C",[32],54.4%
same,"viability, T/C",[33],40.4%
same,"viability, T/C",[34],30.5%
same,"viability, T/C",[35],15.2%
same,"viability, T/C",[36],7.14%
COc1ccc([C@@H](O)c2cc(-c3ncnc4cc(N5CCOCC5)ccc34)c(F)cc2Cl)nn1 + CN(C)c1ccc(Nc2c3ccc(NC(=O)CCN4CCCC4)cc3nc3cc(NC(=O)CCN4CCCC4)ccc23)cc1,IC50,second compound 0.0316 µM,1.42 µM
same,IC50,second compound 0.1 µM,0.709 µM
same,IC50,second compound 0.316 µM,0.718 µM
same,IC50,second compound 1 µM,0.659 µM
same,IC50,second compound 3.16 µM,0.348 µM
same,IC50,second compound 10 µM,0.107 µM
same,"viability, T/C",[1],89.1%
same,"viability, T/C",[2],89.1%
same,"viability, T/C",[3],94.4%
same,"viability, T/C",[4],62%
same,"viability, T/C",[5],20.7%
same,"viability, T/C",[6],7.56%
same,"viability, T/C",[7],88.4%
same,"viability, T/C",[8],72.3%
same,"viability, T/C",[9],74%
same,"viability, T/C",[10],40.1%
same,"viability, T/C",[11],14.7%
same,"viability, T/C",[12],6.35%
same,"viability, T/C",[13],93.1%
same,"viability, T/C",[14],82.9%
same,"viability, T/C",[15],71%
same,"viability, T/C",[16],41.8%
same,"viability, T/C",[17],17.6%
same,"viability, T/C",[18],6.18%
same,"viability, T/C",[19],63.1%
same,"viability, T/C",[20],82.2%
same,"viability, T/C",[21],74%
same,"viability, T/C",[22],37.1%
same,"viability, T/C",[23],11.4%
same,"viability, T/C",[24],5.01%
same,"viability, T/C",[25],69.4%
same,"viability, T/C",[26],82.5%
same,"viability, T/C",[27],49.1%
same,"viability, T/C",[28],21.6%
same,"viability, T/C",[29],8.01%
same,"viability, T/C",[30],5.13%
same,"viability, T/C",[31],56.6%
same,"viability, T/C",[32],52.6%
same,"viability, T/C",[33],30.4%
same,"viability, T/C",[34],13.7%
same,"viability, T/C",[35],5.94%
same,"viability, T/C",[36],4.92%
O=C(c1cc(Cc2n[nH]c(=O)c3ccccc23)ccc1F)N1CCN(C(=O)C2CC2)CC1 + CN(C)c1ccc(Nc2c3ccc(NC(=O)CCN4CCCC4)cc3nc3cc(NC(=O)CCN4CCCC4)ccc23)cc1,IC50,second compound 0.0316 µM,3.87 µM
same,IC50,second compound 0.1 µM,4.57 µM
same,IC50,second compound 0.316 µM,3.73 µM
same,IC50,second compound 1 µM,4.88 µM
same,IC50,second compound 3.16 µM,2.36 µM
same,IC50,second compound 10 µM,< 0.0316 µM
same,"viability, T/C",[1],87.2%
same,"viability, T/C",[2],81.6%
same,"viability, T/C",[3],67.3%
same,"viability, T/C",[4],67.9%
same,"viability, T/C",[5],61.6%
same,"viability, T/C",[6],22.1%
same,"viability, T/C",[7],92.9%
same,"viability, T/C",[8],87.2%
same,"viability, T/C",[9],83.9%
same,"viability, T/C",[10],74.8%
same,"viability, T/C",[11],67.6%
same,"viability, T/C",[12],20.3%
same,"viability, T/C",[13],66.1%
same,"viability, T/C",[14],87.3%
same,"viability, T/C",[15],78.4%
same,"viability, T/C",[16],73.3%
same,"viability, T/C",[17],54.3%
same,"viability, T/C",[18],24.4%
same,"viability, T/C",[19],62.2%
same,"viability, T/C",[20],90.4%
same,"viability, T/C",[21],86.9%
same,"viability, T/C",[22],71.7%
same,"viability, T/C",[23],66.1%
same,"viability, T/C",[24],24.6%
same,"viability, T/C",[25],58.3%
same,"viability, T/C",[26],87.8%
same,"viability, T/C",[27],78.6%
same,"viability, T/C",[28],51.9%
same,"viability, T/C",[29],49.9%
same,"viability, T/C",[30],20.7%
same,"viability, T/C",[31],50.9%
same,"viability, T/C",[32],44.6%
same,"viability, T/C",[33],38.4%
same,"viability, T/C",[34],37.6%
same,"viability, T/C",[35],30.1%
same,"viability, T/C",[36],11.8%
